Drawing on ChEMBL document CHEMBL1149942, “Characterization of the taxol structure-activity profile for the locus of the A-ring side chain” (1994), this text covers EC50 and Assembly for 19 molecules.

One test concerns J774. As to the kind of experiment: In vitro cytotoxicity against J774.2 cells after 72 hr incubation. The class given is functional. Conditions: Mus musculus, J774, 72 h; read-out: ED50 (the source's name).
The nature of test [1]: Activity in calf brain microtubule protein assembly assay. It counts as functional, Bos taurus.
The next test deals with J774.2. The test can be described thus: Compound was tested for cytotoxicity against J774.2 cells, concentration required to inhibit cell division by 50% after 72 hr incubation. The class given is functional. The following applies: Mus musculus, J774.2, 72 h; read-out: ED50 (the source's name).

As to `CC(=O)O[C@H]1C(=O)[C@@]2(C)C([C@H](OC(=O)c3ccccc3)[C@]3(O)C[C@H](OC(=O)[C@H](O)[C@@H](NC(=O)c4ccc(C(=O)c5ccccc5)cc4)c4ccccc4)C(C)=C1C3(C)C)[C@]1(OC(C)=O)CO[C@@H]1C[C@@H]2O` (some centres not stated), the EC50 with J774 was found to be 1.5 µM. In test [1], this molecule displayed an Assembly of 39%.

Regarding `CC(=O)O[C@H]1C(=O)[C@@]2(C)C([C@H](OC(=O)c3ccccc3)[C@]3(O)C[C@H](OC(=O)[C@H](O)CNC(=O)c4ccc(N=[N+]=[N-])cc4)C(C)=C1C3(C)C)[C@]1(OC(C)=O)CO[C@@H]1C[C@@H]2O` (some centres not stated), the EC50 in the test on J774 worked out at 20 µM. The same molecule came in with an Assembly in test [1] of 25%.

For `CC(=O)O[C@H]1C(=O)[C@@]2(C)C([C@H](OC(=O)c3ccccc3)[C@]3(O)C[C@H](OC(=O)[C@H](O)CNC(=O)c4ccccc4)C(C)=C1C3(C)C)[C@]1(OC(C)=O)CO[C@@H]1C[C@@H]2O` (some centres not stated), in the test with J774, the EC50 stood at 20 µM. For the same molecule, the Assembly in test [1] is 60%.

In the case of `CC(=O)O[C@H]1C(=O)[C@@]2(C)C([C@H](OC(=O)c3ccccc3)[C@]3(O)C[C@H](OC(=O)[C@H](O)[C@@H](NC(=O)OCc4ccccc4)c4ccccc4)C(C)=C1C3(C)C)[C@]1(OC(C)=O)CO[C@@H]1C[C@@H]2O` (some centres not stated), in the test on J774, the EC50 was 0.19 µM. Besides, the Assembly in test [1] is reported as 94%.

As to `CC(=O)O[C@H]1C(=O)[C@@]2(C)C([C@H](OC(=O)c3ccccc3)[C@]3(O)C[C@H](OC(=O)[C@H](O)CNC(=O)C(C)(C)C)C(C)=C1C3(C)C)[C@]1(OC(C)=O)CO[C@@H]1C[C@@H]2O` (some centres not stated), the EC50 in the test on J774 turned out to be 40 µM. The molecule further had an Assembly in test [1] of 28%.

With `CC(=O)O[C@H]1C(=O)[C@@]2(C)C([C@H](OC(=O)c3ccccc3)[C@]3(O)C[C@H](OC(=O)[C@H](O)[C@@H](NC(=O)c4ccc(N=[N+]=[N-])cc4)c4ccccc4)C(C)=C1C3(C)C)[C@]1(OC(C)=O)CO[C@@H]1C[C@@H]2O` (some centres not stated), the EC50 in the test with J774 is 0.28 µM. Also, the Assembly in test [1] was determined as 90%.

`CC(=O)O[C@H]1C(=O)[C@@]2(C)C([C@H](OC(=O)c3ccccc3)[C@]3(O)C[C@H](OC(=O)[C@H](O)[C@@H](NC(=O)c4ccc(C(C)=O)cc4)c4ccccc4)C(C)=C1C3(C)C)[C@]1(OC(C)=O)CO[C@@H]1C[C@@H]2O` (some centres not stated): the EC50 in the test with J774 was found to be 1.6 µM. In addition, in test [1], the Assembly turned out to be 84%.

With `CC(=O)O[C@H]1C(=O)[C@@]2(C)C([C@H](OC(=O)c3ccccc3)[C@]3(O)C[C@H](OC(=O)[C@H](O)CNC(=O)OC(C)(C)C)C(C)=C1C3(C)C)[C@]1(OC(C)=O)CO[C@@H]1C[C@@H]2O` (some centres not stated), the EC50 in the test with J774 turned out to be 2 µM. In addition, the Assembly in test [1] is on record as 51%.

For the molecule `CC(=O)O[C@H]1C(=O)[C@@]2(C)C([C@H](OC(=O)c3ccccc3)[C@]3(O)C[C@H](OC(=O)[C@H](O)[C@@H](NC(=O)c4ccccc4O)c4ccccc4)C(C)=C1C3(C)C)[C@]1(OC(C)=O)CO[C@@H]1C[C@@H]2O` (some centres not stated), the EC50 in the test on J774 worked out at 0.56 µM. This molecule registered an Assembly in test [1] of 93%.

The molecule `CCCCCC(=O)NC[C@@H](O)C(=O)O[C@H]1C[C@@]2(O)[C@@H](OC(=O)c3ccccc3)C3[C@](C)(C(=O)[C@H](OC(C)=O)C(=C1C)C2(C)C)[C@@H](O)C[C@H]1OC[C@@]31OC(C)=O` (some centres not stated) had an Assembly in test [1] of 34%. The EC50 in the test on J774.2 was 26 µM.

In test [1], `CC(=O)O[C@H]1C(=O)[C@@]2(C)C([C@H](OC(=O)c3ccccc3)[C@]3(O)C[C@H](OC(=O)[C@H](O)CNC(=O)c4ccc5ccccc5c4)C(C)=C1C3(C)C)[C@]1(OC(C)=O)CO[C@@H]1C[C@@H]2O` (some centres not stated) came in with an Assembly of 28%. Moreover, the EC50 in the test on J774.2 amounted to 26 µM.

Consider `CC(=O)O[C@H]1C(=O)[C@@]2(C)C([C@H](OC(=O)c3ccccc3)[C@]3(O)C[C@H](OC(=O)[C@H](O)CNC(=O)C4CCCCC4)C(C)=C1C3(C)C)[C@]1(OC(C)=O)CO[C@@H]1C[C@@H]2O` (some centres not stated), for which the EC50 in the test with J774 was 16 µM. Also, the Assembly in test [1] amounted to 33%.

As to `CC(=O)O[C@H]1C(=O)[C@@]2(C)C([C@H](OC(=O)c3ccccc3)[C@]3(O)C[C@H](OC(=O)[C@H](O)CNC(=O)OCc4ccccc4)C(C)=C1C3(C)C)[C@]1(OC(C)=O)CO[C@@H]1C[C@@H]2O` (some centres not stated), the EC50 in the test with J774 stood at 16 µM. In test [1], this molecule yielded an Assembly of 20%.

`CC(=O)O[C@H]1C(=O)[C@@]2(C)C([C@H](OC(=O)c3ccccc3)[C@]3(O)C[C@H](OC(=O)[C@H](O)[C@@H](NC(=O)c4ccc(C(F)(F)F)cc4)c4ccccc4)C(C)=C1C3(C)C)[C@]1(OC(C)=O)CO[C@@H]1C[C@@H]2O` (some centres not stated): the EC50 in the test with J774 came out at 0.9 µM. This molecule also registered an Assembly in test [1] of 80%.

With `CC(=O)O[C@H]1C(=O)[C@@]2(C)C([C@H](OC(=O)c3ccccc3)[C@]3(O)C[C@H](OC(=O)[C@H](O)CNC(=O)C45CC6CC(CC(C6)C4)C5)C(C)=C1C3(C)C)[C@]1(OC(C)=O)CO[C@@H]1C[C@@H]2O` (some centres not stated), the EC50 in the test on J774 was 11 µM. The molecule also yielded an Assembly in test [1] of 24%.

`CC(=O)O[C@H]1C(=O)[C@@]2(C)C([C@H](OC(=O)c3ccccc3)[C@]3(O)C[C@H](OC(=O)[C@H](O)CNC(=O)c4ccc(C(F)(F)F)cc4)C(C)=C1C3(C)C)[C@]1(OC(C)=O)CO[C@@H]1C[C@@H]2O` (some centres not stated): the EC50 with J774 is 23 µM. Moreover, in test [1], the Assembly worked out at 20%.

For `CC(=O)O[C@@]12CO[C@@H]1C[C@H](O)[C@@]1(C)C(=O)[C@H](O)C3=C(C)[C@@H](OC(=O)[C@H](O)[C@@H](NC(=O)OC(C)(C)C)c4ccccc4)C[C@@](O)([C@@H](OC(=O)c4ccccc4)[C@H]21)C3(C)C.O.O.O` [DOCETAXEL], the EC50 in the test on J774 was 0.05 µM. The molecule also showed an Assembly in test [1] of 105%.

Molecule `Nc1nc2c(ncn2[C@@H]2O[C@H](COP(=O)(O)OP(=O)(O)OP(=O)(O)O)[C@@H](O)[C@H]2O)c(=O)[nH]1` [GUANOSINE TRIPHOSPHATE] had an Assembly in test [1] of 70%.

With `CC(=O)O[C@H]1C(=O)[C@@]2(C)[C@H]([C@H](OC(=O)c3ccccc3)[C@]3(O)C[C@H](OC(=O)[C@H](O)[C@@H](NC(=O)c4ccccc4)c4ccccc4)C(C)=C1C3(C)C)[C@]1(OC(C)=O)CO[C@@H]1C[C@@H]2O` [PACLITAXEL], the EC50 in the test on J774 turned out to be 0.09 µM. The same molecule yielded an Assembly in test [1] of 100%.
